PubChem BioAssay (NCI)
Values joined by “and” are separate entries in the source; they are usually repeats but may differ in a detail not shown here. Equal values may be shown once.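 These data come from cells grown in 96-well plates and exposed to compound for 48 hours at five concentrations. Here, GI50 denotes the concentration required for 50% inhibition of growth. Definition used: TGI = concentration required for complete inhibition of growth.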

What was measured:
Test in all cases: growth of human tumour cells (NCI), 48 h
A498 renal = tested on: A498 renal
EKVX NSCLC = tested on: EKVX NSCLC
HL-60(TB) leukemia = tested on: HL-60(TB) leukemia
HOP-92 NSCLC = tested on: HOP-92 NSCLC
NCI/ADR-RES ovarian = tested on: NCI/ADR-RES ovarian
SK-OV-3 ovarian = tested on: SK-OV-3 ovarian
SN12C renal = tested on: SN12C renal
SW-620 colon = tested on: SW-620 colon
T-47D breast = tested on: T-47D breast
TK-10 renal = tested on: TK-10 renal

Row | SMILES | GI50 (A498 renal) [µM] | TGI (A498 renal) | GI50 (EKVX NSCLC) [µM] | TGI (EKVX NSCLC) | GI50 (HL-60(TB) leukemia) [µM] | TGI (HL-60(TB) leukemia) | GI50 (HOP-92 NSCLC) [µM] | TGI (HOP-92 NSCLC) [µM] | GI50 (NCI/ADR-RES ovarian) [µM] | TGI (NCI/ADR-RES ovarian) [µM] | GI50 (SK-OV-3 ovarian) [µM] | TGI (SK-OV-3 ovarian) [µM] | GI50 (SN12C renal) [µM] | TGI (SN12C renal) [µM] | GI50 (SW-620 colon) [µM] | TGI (SW-620 colon) | GI50 (T-47D breast) [µM] | TGI (T-47D breast) [µM] | GI50 (TK-10 renal) [µM] | TGI (TK-10 renal) [µM]
1 | C=CC(=O)Nc1cc(Nc2ncc(C(=O)OC(C)C)c(-c3cn(C)c4ccccc34)n2)c(OC)cc1N(C)CCN(C)C | 0.483 | 7.63 µM | 0.0181 | 13.6 µM | 1.47 | 3.7 µM | 2.02 | 10.1 | 2.3 | 17.7 | < 0.01 | 16.7 | 3.02 | 15.4 | 3.25 | 8.88 µM | 0.396 | 14 | < 0.01 | 5.19
2 | O=C(Nc1ccccc1)c1c(O)[nH]c(=S)[nH]c1=O | 65.2 | 106 µM and > 250 µM | 120 | 103 µM and > 250 µM | 80.4 | 67.3 µM and > 250 µM |  | 45.1 |  | 83.8 |  | 122 |  | 112 | 74.4 | 97.7 µM and > 250 µM |  | 105 |  | 125
3 | COc1ccc(CC2c3cc4c(cc3CCN2C)OCO4)c(C=O)c1OC (stereo not given) |  | > 100 µM |  | > 100 µM |  | > 100 µM |  | > 100 |  | > 100 |  | > 100 |  | > 100 |  | > 100 µM |  | > 100 |  | > 100
4 | Fc1ccc(NC(=S)SCc2ccc3c(c2)OCO3)cc1F |  | 61.8 µM |  | 34.1 µM |  | 42.6 µM |  | 88.9 |  | 75.7 |  | > 100 |  | 39.4 |  | > 100 µM |  | 33 |  | > 100
5 | OC1CSSC1Cn1cnc2c(Nc3ccc(OCc4cccc(F)c4)c(Cl)c3)ncnc21 (stereo not given) | 6.17 | 12.4 µM | 0.603 | 2.35 µM | 3.47 | 20.8 µM | 8.97 | 23 | 3.26 | 12.3 | 0.75 | 1.75 | 4.02 | 9.5 | 1.17 | 4.54 µM | 1.3 | 8.4 | 1.15 | 5.01
6 | COc1cccc(C2c3cc4c(cc3OC(C)(N3CCCC3)C2C)OCO4)c1O (stereo not given) |  | 40.5 µM |  | > 91.6 µM |  | 6.01 µM |  | 71.4 |  | 11.8 |  | 38.4 |  | 48.6 |  | > 100 µM |  | > 100 |  | 77.1
7 | Cc1ccc(CN2CCC(C(=O)Nc3ccc(-c4cc5ccccc5[nH]4)cc3)CC2)o1 | 4.04 | > 100 µM | > 100 | > 100 µM | > 100 | > 100 µM | 2.71 | > 100 | > 100 | > 100 | > 100 | > 100 | > 100 | > 100 | > 100 | > 100 µM | > 100 | > 100 | > 100 | > 100
8 | C=C(C)C(OC)C(O)CC1(C)CC(O)CC(C)(C2CCC3OC(C4(C)CCC(Br)C(C)(C)O4)CCC3(C)O2)O1 (stereo not given) | 16.5 | 31.1 µM | 14.1 | 34.1 µM | 17.1 | > 56.7 µM | 15.8 | 34 | 18.3 | 39.6 | 22.8 | 54.3 | 18.3 | 39.4 | 21 | 45.4 µM | 2.27 | 22.2 | 16 | 33.5
9 | C[N+](C)(C)CC(=O)N/N=C(/CC(=O)CC(C1=C(O)c2ccccc2OC1)c1ccccc1)C(=O)Nc1cccc(Cl)c1 (stereo not given) |  | > 100 µM |  | > 100 µM |  | > 100 µM |  | > 100 |  | > 100 |  | > 100 |  | > 100 |  | > 100 µM |  | > 100 |  | > 100
10 | O=C1/C(=C/c2ccc(O)c(O)c2)CCC/C1=C\c1ccc(O)c(O)c1 |  | 21.1 µM |  | 32.4 µM |  | > 27.9 µM |  | 13.2 |  | 23.8 |  | 20.7 |  | 24.9 |  | 23.3 µM |  | > 48.1 |  | 14.9
11 | CCN1/C(=C\c2cc[n+](CC)c3ccccc23)C=Cc2ccccc21 | 0.187 | 2.78 µM | 0.0764 | 12.1 µM | 0.123 | 0.82 µM | 0.161 | 0.937 | 13.8 | 46.2 | 0.236 | 11.4 | 0.233 | 11.9 | 0.23 | 7.81 µM | 0.0403 | 1.75 | 0.448 | 13.7
12 | C=CCOc1ccc2c(C)cc(=O)oc2c1C |  | > 100 µM |  | > 100 µM |  | > 100 µM |  | > 100 |  | > 100 |  |  |  | > 100 |  | > 100 µM |  | > 100 |  | 
13 | Nc1c(C(=O)c2cccc(CCS(N)(=O)=O)c2)cnn1-c1ccc(F)cc1 | > 25 | > 25 µM |  |  | > 25 | > 25 µM | > 25 | > 25 | > 25 | > 25 | > 25 | > 25 | > 25 | > 25 | > 25 | > 25 µM | > 20.6 | > 25 | > 25 | > 25
